Test results: PubChem BioAssay (NCI)
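How tested: cells in 96-well plates exposed to compound for 48 hours at five concentrations. The concentration for full growth arrest is given as TGI.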

What was measured:
Assay in all cases: NCI anticancer screen, dose series, 48 h
T-47D breast = system: T-47D breast
SF-539 CNS = system: SF-539 CNS
K-562 leukemia = system: K-562 leukemia
HS 578T breast = system: HS 578T breast
MDA-MB-435 = system: MDA-MB-435
SK-MEL-2 melanoma = system: SK-MEL-2 melanoma
SF-268 CNS = system: SF-268 CNS
M14 melanoma = system: M14 melanoma
PC-3 prostate = system: PC-3 prostate
UACC-62 melanoma = system: UACC-62 melanoma
OVCAR-3 ovarian = system: OVCAR-3 ovarian
HCT-116 colon = system: HCT-116 colon
MOLT-4 leukemia = system: MOLT-4 leukemia
NCI-H226 lung = system: NCI-H226 lung
BT-549 breast = system: BT-549 breast
MALME-3M melanoma = system: MALME-3M melanoma
SR leukemia = system: SR leukemia
TK-10 renal = system: TK-10 renal
SK-MEL-5 melanoma = system: SK-MEL-5 melanoma
OVCAR-5 ovarian = system: OVCAR-5 ovarian

SMILES: O=C(O)C1=C(C(=O)O)N(c2ccncc2)C(c2ccco2)=CC1c1ccccc1[N+](=O)[O-] (stereo not given)
- TGI (T-47D breast): 20.1 µM
- TGI (SF-539 CNS): 4.55 µM
- TGI (K-562 leukemia): > 100 µM
- TGI (HS 578T breast): 62 µM
- TGI (MDA-MB-435): > 56 µM
- TGI (SK-MEL-2 melanoma): 37.3 µM
- TGI (SF-268 CNS): 36.1 µM
- TGI (M14 melanoma): 22.5 µM
- TGI (PC-3 prostate): 27.9 µM
- TGI (UACC-62 melanoma): 32.1 µM
- TGI (OVCAR-3 ovarian): 23.5 µM
- TGI (HCT-116 colon): 3.4 µM
- TGI (MOLT-4 leukemia): 14.5 µM
- TGI (NCI-H226 lung): 40.2 µM
- TGI (BT-549 breast): 30 µM
- TGI (MALME-3M melanoma): 22.3 µM
- TGI (SR leukemia): 5.68 µM
- TGI (TK-10 renal): 17.6 µM
- TGI (SK-MEL-5 melanoma): > 47.4 µM
- TGI (OVCAR-5 ovarian): 33.8 µM

SMILES: O=C(c1ccc2ccccc2c1)N(Cc1cccnc1)C(=S)N(Cc1cccnc1)C(=O)c1ccc2ccccc2c1
- TGI (T-47D breast): 65.8 µM
- TGI (SF-539 CNS): > 100 µM
- TGI (K-562 leukemia): > 100 µM
- TGI (HS 578T breast): > 100 µM
- TGI (MDA-MB-435): > 100 µM
- TGI (SK-MEL-2 melanoma): 75.7 µM
- TGI (SF-268 CNS): 78.5 µM
- TGI (M14 melanoma): 55 µM
- TGI (PC-3 prostate): > 100 µM
- TGI (UACC-62 melanoma): > 100 µM
- TGI (OVCAR-3 ovarian): 42.7 µM
- TGI (HCT-116 colon): > 100 µM
- TGI (MOLT-4 leukemia): > 100 µM
- TGI (NCI-H226 lung): > 100 µM
- TGI (BT-549 breast): 38.6 µM
- TGI (MALME-3M melanoma): > 100 µM
- TGI (SR leukemia): > 100 µM
- TGI (TK-10 renal): 78.9 µM
- TGI (SK-MEL-5 melanoma): 41.3 µM
- TGI (OVCAR-5 ovarian): > 100 µM

SMILES: CN(C)c1nc2n(CCO)c(-c3ccccc3)c(-c3ccccc3)nc-2c(=O)n1
- TGI (T-47D breast): > 100 µM
- TGI (SF-539 CNS): > 100 µM
- TGI (K-562 leukemia): > 100 µM
- TGI (HS 578T breast): > 100 µM
- TGI (MDA-MB-435): > 100 µM
- TGI (SK-MEL-2 melanoma): > 100 µM
- TGI (SF-268 CNS): > 100 µM
- TGI (M14 melanoma): > 100 µM
- TGI (PC-3 prostate): > 100 µM
- TGI (UACC-62 melanoma): > 100 µM
- TGI (OVCAR-3 ovarian): > 100 µM
- TGI (HCT-116 colon): > 100 µM
- TGI (MOLT-4 leukemia): > 100 µM
- TGI (NCI-H226 lung): > 100 µM
- TGI (BT-549 breast): > 100 µM
- TGI (MALME-3M melanoma): > 100 µM
- TGI (SR leukemia): > 100 µM
- TGI (TK-10 renal): > 100 µM
- TGI (SK-MEL-5 melanoma): > 100 µM
- TGI (OVCAR-5 ovarian): > 100 µM

SMILES: Nc1c(-c2nc3ccccc3o2)sc(=S)n1-c1ccc(Cl)cc1
- TGI (T-47D breast): 33.1 µM
- TGI (SF-539 CNS): 23.9 µM
- TGI (K-562 leukemia): > 100 µM
- TGI (HS 578T breast): 46.4 µM
- TGI (MDA-MB-435): > 100 µM
- TGI (SK-MEL-2 melanoma): 47.8 µM
- TGI (SF-268 CNS): 33.9 µM
- TGI (M14 melanoma): > 100 µM
- TGI (PC-3 prostate): 82.1 µM
- TGI (UACC-62 melanoma): 27.8 µM
- TGI (OVCAR-3 ovarian): 38.1 µM
- TGI (HCT-116 colon): 29.3 µM
- TGI (MOLT-4 leukemia): > 100 µM
- TGI (NCI-H226 lung): 67.1 µM
- TGI (BT-549 breast): 76 µM
- TGI (MALME-3M melanoma): 56.5 µM
- TGI (SR leukemia): > 100 µM
- TGI (TK-10 renal): > 100 µM
- TGI (SK-MEL-5 melanoma): 56.9 µM
- TGI (OVCAR-5 ovarian): > 100 µM

SMILES: O=c1ssc(Cl)c1Nc1c(Cl)ssc1=O
- TGI (T-47D breast): 29.8 µM
- TGI (SF-539 CNS): 59.3 µM
- TGI (K-562 leukemia): 15.3 µM
- TGI (HS 578T breast): > 100 µM
- TGI (MDA-MB-435): 37.7 µM
- TGI (SK-MEL-2 melanoma): 37.6 µM
- TGI (SF-268 CNS): 51.8 µM
- TGI (M14 melanoma): 39.8 µM
- TGI (PC-3 prostate): 37.9 µM
- TGI (UACC-62 melanoma): > 55 µM
- TGI (OVCAR-3 ovarian): 39.4 µM
- TGI (HCT-116 colon): 33.9 µM
- TGI (MOLT-4 leukemia): 7.29 µM
- TGI (NCI-H226 lung): 79 µM
- TGI (BT-549 breast): 33.1 µM
- TGI (MALME-3M melanoma): 37.7 µM
- TGI (SR leukemia): 15 µM
- TGI (TK-10 renal): 33.3 µM
- TGI (SK-MEL-5 melanoma): 32 µM
- TGI (OVCAR-5 ovarian): 37.3 µM

SMILES: Fc1ccc(OCc2nc3cc(C(F)(F)F)ccc3nc2-c2ccccc2)cc1
- TGI (T-47D breast): > 100 µM
- TGI (SF-539 CNS): > 100 µM
- TGI (K-562 leukemia): > 59 µM
- TGI (HS 578T breast): > 100 µM
- TGI (MDA-MB-435): > 100 µM
- TGI (SK-MEL-2 melanoma): > 100 µM
- TGI (SF-268 CNS): > 100 µM
- TGI (M14 melanoma): > 100 µM
- TGI (PC-3 prostate): > 100 µM
- TGI (UACC-62 melanoma): > 100 µM
- TGI (OVCAR-3 ovarian): > 100 µM
- TGI (HCT-116 colon): > 100 µM
- TGI (MOLT-4 leukemia): > 67.6 µM
- TGI (NCI-H226 lung): > 100 µM
- TGI (BT-549 breast): > 100 µM
- TGI (MALME-3M melanoma): > 100 µM
- TGI (SR leukemia): > 100 µM
- TGI (TK-10 renal): > 100 µM
- TGI (SK-MEL-5 melanoma): > 100 µM
- TGI (OVCAR-5 ovarian): > 100 µM

SMILES: COc1cc(C=C2N=C(c3ccccc3)N(n3c(-c4ccccc4)nc4ccccc4c3=O)C2=O)cc(OC)c1OC
- TGI (T-47D breast): 50.2 µM
- TGI (SF-539 CNS): 45.3 µM
- TGI (K-562 leukemia): > 100 µM
- TGI (HS 578T breast): 51.6 µM
- TGI (MDA-MB-435): 55.3 µM
- TGI (SK-MEL-2 melanoma): 43.4 µM
- TGI (SF-268 CNS): 69 µM
- TGI (M14 melanoma): 75.7 µM
- TGI (PC-3 prostate): > 100 µM
- TGI (UACC-62 melanoma): 51 µM
- TGI (OVCAR-3 ovarian): 54 µM
- TGI (HCT-116 colon): 48.3 µM
- TGI (MOLT-4 leukemia): > 100 µM
- TGI (NCI-H226 lung): 49.4 µM
- TGI (BT-549 breast): 32.5 µM
- TGI (MALME-3M melanoma): 38.6 µM
- TGI (SR leukemia): > 100 µM
- TGI (TK-10 renal): > 100 µM
- TGI (SK-MEL-5 melanoma): 56.6 µM
- TGI (OVCAR-5 ovarian): > 100 µM
